From patent US7892789B2, “Method of increasing cell permeability to trehalose by recombinantly producing a trehalose transporter” (priority 2007, dated 2011)
Read-outs that look alike come from different tables or passages of the source.

How the values were obtained:
TRET1 = biological target: T1, TRET1 (Polypedilum vanderplanki, UniProt A5LGM7); format: cell-based; settings: for effect on the transport activity of TRET1: 105 mM trehalose, various concentrations of ionophore/uncoupler
T1 construct: ORF of either Tret1, DmTret1, AmTret1, AgTret1 or BmTret1 cDNA was amplified with PCR; expressed in transfected cells; host or cells: Xenopus laevis oocytes injected with cRNA
T1 sequence (A5LGM7 1-504): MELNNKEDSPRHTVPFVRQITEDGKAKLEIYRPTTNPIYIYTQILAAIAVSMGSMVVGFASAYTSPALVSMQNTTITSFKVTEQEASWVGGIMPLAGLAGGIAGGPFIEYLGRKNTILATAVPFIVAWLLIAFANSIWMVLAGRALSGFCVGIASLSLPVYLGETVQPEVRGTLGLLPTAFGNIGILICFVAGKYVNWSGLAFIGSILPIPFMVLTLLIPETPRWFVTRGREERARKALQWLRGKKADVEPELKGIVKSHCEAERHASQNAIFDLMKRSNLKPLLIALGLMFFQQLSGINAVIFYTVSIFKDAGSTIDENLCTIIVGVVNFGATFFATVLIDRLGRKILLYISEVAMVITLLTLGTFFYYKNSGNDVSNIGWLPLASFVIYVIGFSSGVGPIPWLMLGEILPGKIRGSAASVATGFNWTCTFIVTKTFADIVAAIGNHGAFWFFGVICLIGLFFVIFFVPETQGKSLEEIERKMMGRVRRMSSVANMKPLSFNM
Source text: (§1) The capped RNA (cRNA) expression vector pTRET1-XbG-ev1 series was constructed as follows: ORF of either Tret1, DmTret1, AmTret1, AgTret1 or BmTret1 cDNA was amplified with PCR using specific primers containing Bgl II site at the 5′-end on each primer, respectively. The PCR products were digested with the restriction enzymes, and cloned into the site of Bgl II in pXbG-ev1 (Preston, G. M., et al. (1992) Science 256, 385-387). ORF of hGLUT1 cDNA was obtained by digestion of pSPMM1 with BamH I, and then subcloned into the site of Bgl II in pXbG-2. Template DNAs for cRNA synthesis were amplified from the corresponding cRNA expression vectors with a high fidelity DNA polymerase, KOD—Plus—, (TOYOBO). The cRNAs were synthesized with mMESSAGE mMACHINE T7 Kit (Ambion), and then purified with RNeasy MiniElute Cleanup kit (Qiagen).
Stage V or VI oocytes were extirpated from X. laevis females, and digested ovarian lobes with 0.2% (w/v) collagenase, type II (Sigma-Aldrich) in Ca^2+-free modified Barth's saline (MBS; 88.0 mM NaCl, 1.0 mM KCl, 2.4 mM NaHCO3, 15.0 mM Tris-Cl, 0.82 mM MgSO4, […] penicillin and streptomycin, pH7.6) at 15° C. for 3 h. The oocytes were microinjected with 40 nl of either 1 ng/nl of the TRET1::AcGFP1 or AcGFP1 cRNA, or nuclease-free water (Invitrogen) as a negative control. In order to express TRET1, the oocytes were incubated in MBS (containing 0.41 mM CaCl2) for 3-4 days after injection at 15° C. Fluorescence images of the oocytes injected with the cRNA were observed and analyzed with a fluorescence microscope BZ-8000 (KEYENCE).
(§2) All uptake assays for zero-trans trehalose and/or other sugars were performed using Xenopus oocytes expressing TRET1 at 15° C. in MBS containing appropriate concentrations of sugars. Sugar concentrations were determined using HPLC (Watanabe, M., et al. (2002) J Exp Biol 205, 2799-2802). All assays were carried out in triplicate.
(§3) Xenopus oocytes expressing either TRET1 or hGLUT1 were incubated in 105 mM of various sugars for 3 h. Tre: trehalose; Mal: maltose; Suc: sucrose; Lac: lactose; MAG: methyl-a-glucopyranoside; and 2-DOG: 2-deoxy-glucose (FIG. 3B).
In General, transporters contain two sub-classes: facilitated transporters and secondary active transporters. Activities of secondary active transporters are dependent on the electrochemical membrane potential resulting from the distribution of ions such as H^+. For example, proton-dependent MAL11/AGT1 can act only under acidic extracellular conditions (Stambuk, B. U., et al. (1996) Eur J Biochem 237, 876-881). On the other hand, facilitated transporters function independently of the electrochemical membrane potential. Xenopus oocytes expressing TRET1 were incubated in 105 mM trehalose at pH 4.2 and 7.6 for 3 h.
Xenopus oocytes expressing TRET1 were incubated in 105 mM trehalose with either control buffer (Mock; 0.1% acetone), or buffer containing various concentrations of nigericin (Na^+, K^+-ionophore), valinomycin (K^+-ionophore) or CCCP (H^+-ionophore, uncoupler) for 3 h.
In general, facilitated transporters enable their substrates to flow across membranes down concentration gradients. Xenopus oocytes expressing TRET1 were first incubated in 105 mM trehalose for 3 h, and then transferred into trehalose-free buffer and trehalose content was examined over time.
Xenopus oocytes expressing TRET1 were incubated in various concentrations of trehalose for 15 min. Uptake data were fitted to the Michaelis-Menten and Eadie-Hofstee (inset of FIG. 9) equations.

hGLUT1 = biological target: T2, hGLUT1 (Homo sapiens, UniProt P11166); assay: Sugar uptake assay in Xenopus oocytes expressing hGLUT1; format: cell-based; settings: 105 mM of sugar, 3 h
T2 construct: ORF of hGLUT1 cDNA was obtained by digestion of pSPMM1 with BamH I; expressed in transfected cells; host or cells: Xenopus laevis oocytes injected with cRNA
T2 sequence (P11166 1-492): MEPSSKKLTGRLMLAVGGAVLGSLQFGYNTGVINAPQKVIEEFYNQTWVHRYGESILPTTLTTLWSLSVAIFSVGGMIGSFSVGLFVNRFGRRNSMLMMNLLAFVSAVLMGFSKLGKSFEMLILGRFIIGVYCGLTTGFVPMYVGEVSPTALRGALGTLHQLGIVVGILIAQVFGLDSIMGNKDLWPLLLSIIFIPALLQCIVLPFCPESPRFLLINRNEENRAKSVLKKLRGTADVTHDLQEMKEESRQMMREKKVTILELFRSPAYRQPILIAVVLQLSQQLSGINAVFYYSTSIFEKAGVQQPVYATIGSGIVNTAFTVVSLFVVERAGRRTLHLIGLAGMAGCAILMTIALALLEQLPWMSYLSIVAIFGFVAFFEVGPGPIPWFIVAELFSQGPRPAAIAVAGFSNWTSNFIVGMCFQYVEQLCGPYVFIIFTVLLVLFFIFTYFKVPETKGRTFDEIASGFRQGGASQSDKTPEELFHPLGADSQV
Source text: as §1, §2, §3

[1] = 105 mM of sugar, 3 h, Xenopus oocytes

CO[C@@H]1C[C@@H](C[C@H]2CC[C@H](C)[C@H]([C@@H](C)C(=O)O)O2)O[C@]2(O[C@](C)([C@H]3CC[C@@](C)([C@@H]4O[C@@H]([C@H]5O[C@@](O)(CO)[C@H](C)C[C@@H]5C)C[C@@H]4C)O3)C[C@H]2C)[C@@H]1C [nigericin]
effect on the transport activity of TRET1 (TRET1; 3 h): did not significantly affect

COC1OC(CO)C(O)C(O)C1O (stereo not drawn) [MAG, methyl-a-glucopyranoside]
transport of sugar by TRET1 (substrate selectivity) (TRET1; [1]): transported at a much lower rate

O=CC[C@@H](O)[C@H](O)[C@H](O)CO [2-DOG, 2-deoxy-glucose]
transport of sugar by TRET1 (substrate selectivity) (TRET1): transported at a much lower rate
transport of sugar by Glut1 gene product (substrate selectivity) (hGLUT1): transported

OC[C@H]1O[C@H](O[C@H]2[C@H](O)[C@@H](O)[C@H](O)O[C@@H]2CO)[C@H](O)[C@@H](O)[C@@H]1O [Maltose, maltose]
transport of sugar by TRET1 (substrate selectivity) (TRET1; [1]): not transported

N#CC(C#N)=NNc1cccc(Cl)c1 [CCCP, carbonylcyanide m-chlorophenylhydrazone]
effect on the transport activity of TRET1 (TRET1; 3 h): did not significantly affect

OC[C@H]1O[C@@H](O[C@H]2[C@H](O)[C@@H](O)C(O)O[C@@H]2CO)[C@H](O)[C@@H](O)[C@H]1O (stereo partly drawn) [lactose, 4-O-b-D-galactopyranosyl-D-glucose]
transport of sugar by TRET1 (substrate selectivity) (TRET1; [1]): not transported

CC(C)[C@@H]1NC(=O)[C@H](C)OC(=O)[C@@H](C(C)C)NC(=O)[C@@H](C(C)C)OC(=O)[C@H](C(C)C)NC(=O)[C@H](C)OC(=O)[C@@H](C(C)C)NC(=O)[C@@H](C(C)C)OC(=O)[C@H](C(C)C)NC(=O)[C@H](C)OC(=O)[C@@H](C(C)C)NC(=O)[C@@H](C(C)C)OC1=O [valinomycin]
effect on the transport activity of TRET1 (TRET1; 3 h): did not significantly affect

OC[C@H]1O[C@@](CO)(O[C@H]2O[C@H](CO)[C@@H](O)[C@H](O)[C@H]2O)[C@@H](O)[C@@H]1O [sucrose]
transport of sugar by TRET1 (substrate selectivity) (TRET1; [1]): not transported
